Data on 46 compounds can be found in patent EP3492483A1, “COMPOUNDS AND METHODS FOR TREATING BACTERIAL INFECTIONS” (The Washington University, priority 2009, dated 2011).

Like-named read-outs stand apart in the source and are kept apart here. A value given as a limit tells only on which side of the number the result lay.

This assay addresses T1, FimH (Escherichia coli, UniProt Q1R2J4).
T1 construct: endogenous in cells; host or cells: type 1 piliated UPEC bacteria
In words: cell-based. Details: species or system UPEC. The note with it: for EC90: read-out: HA 50% titer EC90; for HAI Titer EC>90: Table 1; for activity in the hemagglutination assay (no activity up to concentration): glucosides.

Method: In some embodiments, activity of the compound is measured using hemmagglutination titer of guinea pig red blood cells. Hemagglutination of guinea pig red blood cells by type1 piliated UPEC is dependent upon FimH mannose binding ability and serial dilutions allow a quantitative analysis.
Biological activity against FimH was evaluated using a guinea pig red blood cell-based hemagglutination (HA) assay (ref) in which the concentration of the mannoside on reducing agglutination by 50% was used as the primary endpoint (50% HA titer).
Hemagglutination of guinea pig red blood cells by type1 piliated UPEC is dependent upon FimH mannose binding ability.

Regarding `CNS(=O)(=O)c1ccccc1-c1ccc(O[C@H]2O[C@H](CO)[C@@H](O)[C@H](O)[C@@H]2O)cc1` [Compound 14q], the EC90 is 4 µM.

In the case of `OCc1ccccc1-c1ccc(O[C@H]2O[C@H](CO)[C@@H](O)[C@H](O)[C@@H]2O)cc1` [Compound 14g], the EC50 worked out at 16 µM, the “less potent than meta analog 14h” value is listed as “over 5 fold” and the EC90 was found to be 16 µM. For `O=[N+]([O-])c1cccc(OC2OC(CO)C(O)C(O)C2O)c1` (centres unmarked) [Compound 12, 2-(hydroxymethyl)-6-(3-nitrophenoxy)tetrahydropyran-3,4,5-triol], the EC50 worked out at 16 µM and the “HAI Titer EC>90” value is 16.000 µM. With `OCC1OC(Oc2cc(C(F)(F)F)cc(C(F)(F)F)c2)C(O)C(O)C1O` (centres unmarked) [Compound 26, 2-[3,5-bis(trifluoromethyl)phenoxy]-6-(hydroxymethyl)tetrahydropyran-3,4,5-triol], the “HAI Titer EC>90” value stood at 32.000 µM. Regarding `NC(=O)c1cccc(OC2OC(CO)C(O)C(O)C2O)c1` (centres unmarked) [Compound 15, 3-[3,4,5-trihydroxy-6-(hydroxymethyl)tetrahydropyran-2-yl]oxybenzamide], the EC50 worked out at 16 µM and the “HAI Titer EC>90” value turned out to be 16.000 µM. `O=C(c1ccccc1)c1cccc(O[C@H]2O[C@H](CO)[C@@H](O)[C@H](O)[C@@H]2O)c1` [Compound 8d]: the EC90 was determined as 8 µM. Regarding `O=c1[nH]c2ccc(O[C@H]3O[C@H](CO)[C@@H](O)[C@H](O)[C@@H]3O)cc2o1` [Compound 7c], the EC90 turned out to be 4 µM. With `CS(=O)(=O)Nc1ccccc1-c1ccc(O[C@H]2O[C@H](CO)[C@@H](O)[C@H](O)[C@@H]2O)cc1` [Compound 14o], the EC90 was 12 µM. The same measure, in the same setting: to `OC[C@H]1O[C@H](Oc2ccc(-c3ccccc3O)cc2)[C@@H](O)[C@@H](O)[C@@H]1O` [Compound 14j] belongs 8 µM. `OCC1OC(Oc2ccc(Br)cc2)C(O)C(O)C1O` (centres unmarked) [Compound 25, 2-(4-bromophenoxy)-6-(hydroxymethyl)tetrahydropyran-3,4,5-triol]: the “HAI Titer EC>90” value amounted to 32.000 µM. Regarding `N#Cc1ccccc1-c1ccc(O[C@H]2O[C@H](CO)[C@@H](O)[C@H](O)[C@@H]2O)cc1` [Compound 14d], the EC90 was found to be 2 µM. Take `OCC1OC(Oc2ccccc2Cl)C(O)C(O)C1O` (centres unmarked) [Compound 23, 2-(2-chlorophenoxy)-6-(hydroxymethyl)tetrahydropyran-3,4,5-triol]: the EC50 is 4 µM, the “improvement in potency relative to parent phenyl mannoside 3a” value is given as “greater than 5 fold” and the “HAI Titer EC>90” value is 4.000 µM. On to `O=C(O)c1cccc(O[C@H]2O[C@H](CO)[C@@H](O)[C@H](O)[C@@H]2O)c1` [Compound 3l], for which the EC50 was determined as 60 µM and the “lost potency relative to matched pair methyl ester 3j” value is 10 fold. With `COC(=O)c1cccc(-c2ccc(O[C@H]3O[C@H](CO)[C@@H](O)[C@H](O)[C@H]3O)cc2)c1` [Compound 11a], the “activity in the hemagglutination assay (no activity up to concentration)” value is above 2.5 mM. Consider `CC(=O)Nc1ccccc1OC1OC(CO)C(O)C(O)C1O` (centres unmarked) [Compound 3, N-[2-[3,4,5-trihydroxy-6-(hydroxymethyl)tetrahydropyran-2-yl]oxyphenyl]acetamide], for which the “HAI Titer EC>90” value worked out at 125.000 µM. Consider `N#Cc1cccc(-c2ccc(O[C@H]3O[C@H](CO)[C@@H](O)[C@H](O)[C@@H]3O)cc2)c1` [Compound 62, 3-[4-[(2R,3S,4S,5S,6R)-3,4,5-Trihydroxy-6-(hydroxymethyl)tetrahydropyran-2-yl]oxyphenyl]benzonitrile], for which the EC90 came out at 1 µM. As for `O=[N+]([O-])c1ccc(-c2ccc(O[C@H]3O[C@H](CO)[C@@H](O)[C@H](O)[C@@H]3O)cc2)cc1` [Compound 14t], the EC90 amounted to 2 µM. `N#Cc1ccc(-c2ccc(O[C@H]3O[C@H](CO)[C@@H](O)[C@H](O)[C@@H]3O)cc2)cc1` [Compound 14f]: the EC90 came to 8 µM. As for `COC(=O)Cc1ccc(OC2OC(CO)C(O)C(O)C2O)cc1` (centres unmarked) [Compound 9, methyl 2-[4-[3,4,5-trihydroxy-6-(hydroxymethyl)tetrahydropyran-2-yl]oxyphenyl]acetate], the EC50 stood at 30 µM and the “HAI Titer EC>90” value is 30.000 µM. As for `COC(=O)c1cc2cc(O[C@H]3O[C@H](CO)[C@@H](O)[C@H](O)[C@@H]3O)ccc2s1` [Compound 7d], the EC90 turned out to be 2 µM. Regarding `OCc1cccc(-c2ccc(O[C@H]3O[C@H](CO)[C@@H](O)[C@H](O)[C@@H]3O)cc2)c1` [Compound 14h], the EC90 is 3 µM. For `Cc1ccc(OC2OC(CO)C(O)C(O)C2O)cc1` (centres unmarked) [Compound 20, 2-(hydroxymethyl)-6-(4-methylphenoxy)tetrahydropyran-3,4,5-triol], the EC50 was determined as 8 µM and the “HAI Titer EC>90” value stood at 8.000 µM. Turning to `OCC1OC(Oc2ccc3ccccc3c2)C(O)C(O)C1O` (centres unmarked) [Compound 28, 2-(hydroxymethyl)-6-(2-naphthyloxy)tetrahydropyran-3,4,5-triol], the “HAI Titer EC>90” value came to 6.000 µM. `CCCc1ccc(OC2OC(CO)C(O)C(O)C2O)cc1` (centres unmarked) [Compound 18, 2-(hydroxymethyl)-6-(4-propylphenoxy)tetrahydropyran-3,4,5-triol]: the “HAI Titer EC>90” value turned out to be 15.000 µM. Take `NC(=O)c1ccccc1-c1ccc(O[C@H]2O[C@H](CO)[C@@H](O)[C@H](O)[C@@H]2O)cc1` [Compound 14u]: the EC90 amounted to 6 µM.

With `COC(=O)c1ccc(OC2OC(CO)C(O)C(O)C2O)cc1` (centres unmarked) [Compound 7, methyl 4-[3,4,5-trihydroxy-6-(hydroxymethyl)tetrahydropyran-2-yl]oxybenzoate], the “HAI Titer EC>90” value was 8.000 µM. Regarding `COC(=O)c1cc2ccc(O[C@H]3O[C@H](CO)[C@@H](O)[C@H](O)[C@@H]3O)cc2s1` [Compound 7e], the EC90 was 2 µM.

Consider `CO[C@H]1O[C@H](CO)[C@@H](O)[C@H](O)[C@@H]1O` [Methylαman, reference compound], for which, where the note is “read-out: HA 50% titer”, the EC50 is above 1000 µM. With `COc1ccc(OC2OC(CO)C(O)C(O)C2O)cc1` (centres unmarked) [Compound 21, 2-(hydroxymethyl)-6-(4-methoxyphenoxy)tetrahydropyran-3,4,5-triol], the EC50 was 8 µM and the “HAI Titer EC>90” value was 8.000 µM.

As for “2-(4-chlorophenoxy)-6-(hydroxymethyl)tetrahydropyran-3,4,5-triol [Compound 22]”, the “increase in activity relative to 14a” value is given as around 8 fold and the “HAI Titer EC>90” value came out at 32.000 µM. Where the note is “Table 10, read-out: HA 50% Titer”, the EC50 worked out at 32 µM. In addition, under “based on two monomeric units of 14a”, the “increase in avidity relative to the expected potency of 500 nM” value amounted to 4 fold. Besides, the EC50 (read-out: HA titer) amounted to 0.13 µM. Regarding `COC(=O)Cc1cc(OC2OC(CO)C(O)C(O)C2O)ccc1O` (centres unmarked) [Compound 11, methyl 2-[2-hydroxy-5-[3,4,5-trihydroxy-6-(hydroxymethyl)tetrahydropyran-2-yl]oxy-phenyl]acetate], the “HAI Titer EC>90” value was 15.000 µM.

As for `COC(=O)c1ccc(-c2cccc(O[C@H]3O[C@H](CO)[C@@H](O)[C@H](O)[C@@H]3O)c2)cc1` [Compound 8b], the 90% effect concentration (EC90) came out at 6 µM. As for `COC(=O)c1cc(OC2OC(CO)C(O)C(O)C2O)cc(C(=O)OC)c1` (centres unmarked) [Compound 10, dimethyl 5-[3,4,5-trihydroxy-6-(hydroxymethyl)tetrahydropyran-2-yl]oxybenzene-1,3-dicarboxylate], the “HAI Titer EC>90” value was 2.000 µM. Take `O=C(O)c1cc(C(=O)O)cc(-c2ccc(O[C@H]3O[C@H](CO)[C@@H](O)[C@H](O)[C@@H]3O)cc2)c1` [Compound 45, 5-[4-[(2R,3S,4S,5S,6R)-3,4,5-Trihydroxy-6-(hydroxymethyl)tetrahydropyran-2-yl]oxyphenyl]benzene-1,3-dicarboxylic acid]: the EC90 amounted to 2 µM.

On to `OCC1OC(Oc2cccc(Cl)c2)C(O)C(O)C1O` (centres unmarked) [Compound 24, 2-(3-chlorophenoxy)-6-(hydroxymethyl)tetrahydropyran-3,4,5-triol], for which the EC50 was 8 µM and the “HAI Titer EC>90” value worked out at 8.000 µM. For `OCc1ccc(-c2ccc(O[C@H]3O[C@H](CO)[C@@H](O)[C@H](O)[C@@H]3O)cc2)cc1` [Compound 14i], the EC90 was 6 µM. As to `OC[C@H]1O[C@H](Oc2ccc3ccccc3c2)[C@@H](O)[C@@H](O)[C@@H]1O` [Compound 7b], the EC90 is 6 µM. Turning to `CCc1ccc(OC2OC(CO)C(O)C(O)C2O)cc1` (centres unmarked) [Compound 17, 2-(4-ethylphenoxy)-6-(hydroxymethyl)tetrahydropyran-3,4,5-triol], the “HAI Titer EC>90” value was 23.000 µM. Turning to `COc1cccc(-c2ccc(O[C@H]3O[C@H](CO)[C@@H](O)[C@H](O)[C@@H]3O)cc2)c1` [Compound 14n], the EC90 was 1.5 µM. Turning to `OC[C@H]1O[C@H](Oc2ccc(-c3cccnc3)cc2)[C@@H](O)[C@@H](O)[C@@H]1O` [Compound 8g], the EC90 was found to be 2 µM.

As to `COC(=O)c1cccc(-c2ccc(O[C@@H]3O[C@H](CO)[C@@H](O)[C@H](O)[C@H]3O)cc2)c1` [Compound 11b], the “activity in the hemagglutination assay (no activity up to concentration)” value is recorded as above 2.5 mM.

In the case of `O=[N+]([O-])c1ccc(COC2OC(CO)C(O)C(O)C2O)cc1` (centres unmarked) [Compound 13, 2-(hydroxymethyl)-6-[(4-nitrophenyl)methoxy]tetrahydropyran-3,4,5-triol], the EC50 turned out to be 60 µM; the “decrease in potency relative to matched pairs 3a and 3b” value is 2 fold; the “HAI Titer EC>90” value amounted to 60.000 µM. With `OCC1OC(Oc2cc(F)c(F)c(F)c2)C(O)C(O)C1O` (centres unmarked) [Compound 27, 2-(hydroxymethyl)-6-(3,4,5-trifluorophenoxy)tetrahydropyran-3,4,5-triol], the “HAI Titer EC>90” value was determined as 125.000 µM. Consider `OC[C@H]1O[C@H](Oc2ccc(-c3ccncc3)cc2)[C@@H](O)[C@@H](O)[C@@H]1O` [Compound 8h], for which the EC90 stood at 2 µM.

`N#Cc1ccccc1OC1OC(CO)C(O)C(O)C1O` (centres unmarked) [Compound 5, 2-[3,4,5-trihydroxy-6-(hydroxymethyl)tetrahydropyran-2-yl]oxybenzonitrile]: the EC50 is 6 µM, the “improvement in potency relative to parent phenyl mannoside 3a” value is on record as “greater than 5 fold” and the “HAI Titer EC>90” value came out at 6.000 µM. Consider `CNS(=O)(=O)c1cccc(-c2ccc(O[C@H]3O[C@H](CO)[C@@H](O)[C@H](O)[C@@H]3O)cc2)c1` [Compound 14r], for which the EC90 turned out to be 1 µM.

A word on the EC90: it is the point of the concentration-response curve where the effect stands at 90%.
